# Data taken from patent publication US7998940B2, “Aptamers to von Willebrand factor and their use as thrombotic disease therapeutics” (Archemix Corp., priority 2004, dated 2011).
# Several values for one entry are separate records, joined by “and”; a condition that tells them apart may be missing. Equal entries are not always repeated. [invdT] = inverted (3'-3') thymidine; d = 2'-deoxy (DNA); m = 2'-O-methyl
# Experiments:
# [1] = pharmacokinetics of ARC1779 after 0.5 mg/kg IV bolus in cynomolgus macaques (HPLC); format: in vivo; settings: 0.5 mg/kg single IV bolus, 2-compartment analysis
# Experimental: -PK/PD correlation of ARC1779 was evaluated in three cynomolgus macaques after a single intravenous (IV) bolus dose at 0.5 mg/kg. ARC1779 levels in the plasma were correlated to PD effects of ARC1779 in inhibition of platelet function or prolongation of cutaneous bleeding time (CBT).
# (§1) Following IV administration, blood was collected percutaneously at various time points post-dose for PK and PD analysis. PD effect of ARC1779 on platelet function was determined by PFA-100 assays and effect of ARC1779 on bleeding was measured by CBT time. In addition, plasma samples were analyzed by HPLC for quantitation of ARC1779 levels. PK parameter estimates were determined by 2-compartment analysis.
# [2] = pharmacokinetics after 3 mg/kg IV in cynomolgus macaques (Oligreen, HPLC); format: in vivo
# Experimental: ARC1368 (SEQ ID NO 291), 1779 (SEQ ID NO 320) and 1780 (SEQ ID NO 321) (as described in Example 2 above) were injected intravenously into cynomolgus macaques (n=3/group) at a dosage of 3 mg/kg which was expected to yield an instantaneous plasma concentration of 3 uM, approximately 30-fold higher than the putative effective dose. Subsequently, citrated blood samples were collected at regular intervals and processed for plasma.
# Subsequently, plasma aptamer concentrations were determined using the Oligreen assay (Gray et al., Antisense and Nucleic Acid Drug Development 7 (3):133-140 (1997). The data were subsequently analyzed using the program WinNonlin to yield the pharmacokinetic parameters listed in Tables 29 to 31 below.
# Following the Oligreen assay analysis, plasma aptamer concentrations were determined for the animals dosed with ARC1779 (SEQ ID NO 320) using a validated HPLC-based assay. The HPLC data were analyzed via noncompartmental and 2-compartment analysis using the program WinNonlin.
# platelet function = experiment: ex vivo PFA-100 platelet function after 0.5 mg/kg IV bolus in cynomolgus macaques; settings: 0.5 mg/kg single IV bolus
# Experimental: as §1
# C. macaques were dosed at 0.5 mg/kg IV bolus with ARC1779 (SEQ ID NO 320). PFA-100 closure time, BIPA and cutaneous bleeding time (“CBT”) were all measured as a function of time throughout the studies. BIPA and PFA-100 closure times were measured as described in previously in Example 3. Cutaneous bleeding times were measured using standard protocols described as follows.
# [3] = tested on: intra-arterial thrombosis of carotid arteries; experiment: cynomolgus macaque electrolytic thrombosis model; format: in vivo, cynomolgus monkeys
# Experimental: A study was performed to test the efficacy of ARC1779 (SEQ ID NO 320) in inhibiting intra-arterial thrombosis in a well documented non-human primate electrolytic thrombosis model. See, e.g., Rote et al., Stroke, 1994: 25, 1223-1233.
# Each animal was anesthetized prior to surgical preparation, intubated and maintained in anesthesia with isoflurane inhalant anesthetic to effect delivered through a volume-regulated respirator. An intravenous catheter was also placed in a peripheral vein for administration of lactated Ringer's solution during the procedure.
# A catheter was placed in the femoral artery of each animal for continuous monitoring of arterial blood pressure. Similarly a catheter was placed in the femoral vein for blood sample collection. Each carotid artery was instrumented with a Doppler flow probe connected to a flow meter. The flow probes were placed around the artery at a point proximal to the insertion of the intra-arterial electrode and stenosis. The stenosis was placed around each carotid artery so that the […] was reduced by approximately 50% to 60% without altering the mean […]. Blood flow in the carotid arteries was monitored and recorded continuously throughout the observation periods.
# Electrolytic injury to the intimal surface of each carotid artery was accomplished via placement of an intravascular electrode. Each electrode was connected to the positive pole of a constant current device and cathode connected to a distant subcutaneous site. Continuous current was delivered to each vessel for a period of 3 hours or for 30 minutes after complete occlusion, whichever was shorter.
# Once the electrodes were placed on the right carotid artery (“RCA”) the animal was administered the test article as indicated in Table 32 above. Approximately 15 minutes after test article administration, the electrical current was applied at 100 μA. Blood samples and CBT measurements were collected at the time points specified in Blood Sample Collection Schedule as indicated in FIG. 31. The current was terminated ˜30 minutes after the blood flow signal remained stable at zero flow (which indicates an occlusive thrombus had been formed at the site) or after 180 minutes of electrical stimulation. Approximately 195 minutes after the test article was administered, the left carotid artery (“LCA”) had electrical current administered in a similar fashion as previously described for the RCA. After termination of all surgical procedures and sample collection each animal was euthanized.
# An additional 10 cynomolgus monkeys (2.5 to 3.5 kg) were divided into treatment groups 5 to 7 and were treated according the regimen indicated in Table 33 below.
# The animal procedure for each treatment group in Table 33 was conducted as reported for the animals in Example 5B.
# [4] = not given; remark: listed apart in the source
# [5] = 3 mg/kg IV, monkeys, Oligreen assay, noncompartmental, individual animals 2101, 2103, 2104
# [6] = 3 mg/kg IV, monkeys, Oligreen assay, noncompartmental, mean of 3 animals
# [7] = cynomolgus monkey, in vivo, iv, 3 mg/kg
substance,measurement,setting,value
PEG20K-NH2-mGmCmGmUdGdCdAmGmUmGmCmCmUmUmCmGmGmCdCmG-s-TmGdCdGdGTmGmCdCmUdCdCmGmUdCmAmCmGmC-3T [ARC1779],distribution half-life (t1/2α),[1],approximately 1.0 hour
same,distribution half-life (t1/2α),"[2]; 3 mg/kg IV, HPLC-based assay",1.4 h
same,elimination half-life (t1/2β),"[2]; 3 mg/kg IV, HPLC-based assay",12.9
same,distribution phase α-half-life,"[2]; 3 mg/kg IV, Oligreen assay",~2 h
same,AUClast,[2]; [5],309.245 µg·h/mL and 336.59 µg·h/mL and 235.503 µg·h/mL
same,Cmax,[2]; [5],69.065 µg/mL and 65.717 µg/mL and 70.344 µg/mL
same,MRTlast,[2]; [5],5.27 h and 4.66 h and 2.69 h
same,Tmax,[2]; [5],0.25 hr (2×) and 0.50 hr
same,"AUClast, Mean",[2]; [6],293.779 µg·h/mL
same,"Cmax, Mean",[2]; [6],68.375 µg/mL
same,"MRTlast, Mean",[2]; [6],4.21 h
same,"Tmax, Mean",[2]; [6],0.33 h
same,concentration-time profile,"[2]; in words, 3 mg/kg IV, HPLC method",biphasic
same,pharmacokinetic profile,"[2]; in words, 3 mg/kg IV, mean concentration-time profile, OliGreen assay",mainly monophasic
same,plasma concentration at which platelet function returned to normal (PFA-100),platelet function,approximately 77 nM
same,thrombus formation,"[3]; in words, sequential 180-minute electrical injuries to the carotid arteries",inhibited thrombus formation
same,carotid arteries that developed occlusive thrombi,[3]; infusion targeted to constant plasma level of 300 nM,100%
same,carotid arteries that developed occlusive thrombi,[3]; infusion targeted to constant plasma level of 500 nM,63%
same,carotid arteries that developed occlusive thrombi,[3]; infusion targeted to constant plasma level of 750 nM,25%
same,carotid arteries that developed occlusive thrombi,[3]; infusion targeted to constant plasma level of 1000 nM,0%
"dGdGdCdGTdGdCdAdGTdGdCdCTTdCdGdGdCdCdGTdGdCdGdGTdGdCdCTdCdCdGTdCdAdCdGdCdC-3T (DNA GGCGTGCAGTGCCTTCGGCCGTGCGGTGCCTCCGTCACGCC; DNA, [invdT] at 3' end, backbone and methylation of C not given here) [ARC1172]",T½ Rat plasma,,3 h
same,T½ Human plasma,[4],17 h
"mGmCmGmUdGdCdAmGmUmGmCmCmUmUmCmGmGmCdCmG-s-TmGdCdGdGTmGmCdCmUdCdCmGmUdCmAmCmGmC-3T (GCGUGCAGUGCCUUCGGCCGTGCGGTGCCUCCGUCACGC; sugars from the 5' end mmmmdddmmmmmmmmmmmdmdmddddmmdmddmmdmmmm, [invdT] at 3' end, backbone not given here) [ARC1368]",T½ Rat plasma,,21 h
same,"AUC0-last, Mean",[2]; [7],25224 ng·h/mL
same,"MRTlast, Mean",[2]; [7],4.48 h
same,distribution phase,[2]; [7],rapid distribution phase
same,pharmacokinetic profile,[2]; [7],mainly monophasic
same,T½ Human plasma,[4],63 h
